Ki and MIC data for 21 compounds are collected here from ChEMBL document CHEMBL3817792, “Targeting the Motion of Shikimate Kinase: Development of Competitive Inhibitors that Stabilize an Inactive Open Conformation of the Enzyme” (J Med Chem, 2016).

Experiment [1] can be described thus: Inhibition of Mycobacterium tuberculosis shikimate kinase.
Experiment [2] in a line: Inhibition of Mycobacterium tuberculosis shikimate kinase using shikimic acid substrate by measuring oxidation of NADH to NAD by pyruvate kinase and lactate dehydrogenase coupled enzyme assay based Dixon plot analysis.
A further experiment concerns the target Shikimate kinase (Helicobacter pylori (strain ATCC 700392 / 26695) (Campylobacterpylori), UniProt P56073). In words: Inhibition of Helicobacter pylori shikimate kinase using shikimic acid substrate by measuring oxidation of NADH to NAD by pyruvate kinase and lactate dehydrogenase coupled enzyme assay based Dixon plot analysis.
Another experiment deals with Helicobacter pylori. Description: Antimicrobial activity against Helicobacter pylori clinical isolates assessed as inhibition of visible microbial growth incubated for 6 days by agar dilution method. Type of experiment: functional. The following applies: 144 h. Background: In agar dilution, organisms are placed on agar that contains the substance at set levels.

Shikimate kinase, sequence (P56073 whole entry): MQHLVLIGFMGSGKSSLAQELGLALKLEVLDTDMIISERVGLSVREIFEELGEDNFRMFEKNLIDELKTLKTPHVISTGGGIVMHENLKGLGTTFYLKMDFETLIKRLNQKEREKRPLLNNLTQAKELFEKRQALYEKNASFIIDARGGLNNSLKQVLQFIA

Consider `N[C@H]1C=C(C(=O)O)C[C@@H](O)[C@@H]1O`, for which the Ki in experiment [1] worked out at 65 µM. Consider `N[C@H]1C=C(C(=O)O)C[C@@H](OCc2ccc3ccccc3c2)[C@@H]1O`, for which the inhibition constant (Ki) in experiment [2] was greater than 2000 µM; on Shikimate kinase it was greater than 800 µM. For `Cc1ccc(CO[C@@H]2CC(C(=O)O)=C[C@@H](O)[C@H]2O)cc1` the same measures were 166 µM and 10.9 µM. `COC(=O)C1=C[C@@H](O)[C@H](O)[C@H](OCc2cccc([N+](=O)[O-])c2)C1`: the minimal inhibitory concentration (MIC) in the experiment with Helicobacter pylori was found to be 128 µg/mL. `O=C(O)C1=C[C@@H](O)[C@@H](O)[C@H](OCc2cccc([N+](=O)[O-])c2)C1`: the Ki in experiment [2] came to 10 µM; on Shikimate kinase it was 0.46 µM.

Turning to `COc1cccc(CO[C@@H]2CC(C(=O)O)=C[C@@H](O)[C@H]2O)c1`, the inhibitory constant (Ki) was 135 µM in experiment [2] and 1 µM on Shikimate kinase. As to `COC(=O)C1=C[C@@H](O)[C@@H](O)[C@H](n2cc(Cc3ccccc3)nn2)C1`, the MIC with Helicobacter pylori was 256 µg/mL. For `COC(=O)C1=C[C@@H](O)[C@@H](O)[C@H](OCc2ccc3sccc3c2)C1`, the minimum inhibitory concentration (MIC) with Helicobacter pylori came out at 4 µg/mL. As for `O=C(O)C1=C[C@@H](O)[C@@H](O)[C@H](n2cc(COc3ccccc3)nn2)C1`, the inhibitory constant (Ki) is greater than 2000 µM in experiment [2] and 67 µM at Shikimate kinase. For `Cc1cccc(CO[C@@H]2CC(C(=O)O)=C[C@@H](O)[C@H]2O)c1`, the inhibitory constant (Ki) was determined as 109 µM in experiment [2] and 2.1 µM on Shikimate kinase.

Consider `O=C(O)C1=C[C@@H](O)[C@@H](O)[C@H](OCc2ccccc2)C1`, for which the inhibition constant Ki was found to be 360 µM in experiment [2] and 3 µM on Shikimate kinase. On to `O=C(O)C1=C[C@@H](O)[C@@H](O)[C@H](OCc2ccc3sccc3c2)C1`, for which the figures for the inhibition constant Ki (in experiment [2]; on Shikimate kinase) were 43 µM and 0.56 µM, respectively. Take `COC(=O)C1=C[C@H](N)[C@@H](O)[C@H](OCc2ccc3ccccc3c2)C1`: the MIC in the experiment on Helicobacter pylori amounted to 64 µg/mL. On to `O=C(O)C1=C[C@@H](O)[C@@H](O)[C@H](OCc2c(F)c(F)c(F)c(F)c2F)C1`, for which the inhibition constant Ki in experiment [2] was 710 µM; at Shikimate kinase, 41 µM.

Consider `N[C@H]1C=C(C(=O)O)C[C@@H](OCc2ccc3sccc3c2)[C@@H]1O`, for which the figures for the Ki (in experiment [2]; on Shikimate kinase) were 415 µM and 535 µM, respectively. Take `COC(=O)C1=C[C@H](N)[C@@H](O)[C@H](OCc2ccc3sccc3c2)C1`: the minimal inhibitory concentration (MIC) with Helicobacter pylori was found to be 256 µg/mL.

Regarding `COC(=O)C1=C[C@@H](O)[C@@H](O)[C@H](n2cc(COc3ccccc3)nn2)C1`, in the experiment with Helicobacter pylori, the minimal inhibitory concentration (MIC) was 128 µg/mL. Turning to `O=C(O)C1=C[C@@H](O)[C@@H](O)[C@H](OCc2cccc(F)c2)C1`, the Ki in experiment [2] stood at 180 µM; on Shikimate kinase it was 1.28 µM. Taken in the same sequence, the figures for `O=C(O)C1=C[C@@H](O)[C@@H](O)[C@H](OCc2ccc3ccccc3c2)C1` were 22 µM and 1.8 µM. Taken in the same sequence, the figures for `O=C(O)C1=C[C@@H](O)[C@@H](O)[C@H](n2cc(Cc3ccccc3)nn2)C1` were greater than 2000 µM and 95 µM. As for `CC1(C)S[C@@H]2[C@H](NC(=O)[C@H](N)c3ccccc3)C(=O)N2[C@H]1C(=O)O` [AMPICILLIN], the minimum inhibitory concentration (MIC) with Helicobacter pylori came to 1 µg/mL.

The Ki is a measure of affinity in units of concentration, obtained from inhibition or displacement. The low end stands for tighter binding, the high end for weaker binding. As a reminder, the MIC is the least concentration at which growth counts as inhibited.
